Source: ChEMBL document CHEMBL1909046, “DrugMatrix in vitro pharmacology data”

Key:
[1] = molecular target: T1, B2 bradykinin receptor (Homo sapiens, UniProt P30411); format: cell membranes, Membrane; details: chem-1; also: in other assays of this panel Not Active means under 50% inhibition at 10 µM
T1 sequence (P30411 whole entry): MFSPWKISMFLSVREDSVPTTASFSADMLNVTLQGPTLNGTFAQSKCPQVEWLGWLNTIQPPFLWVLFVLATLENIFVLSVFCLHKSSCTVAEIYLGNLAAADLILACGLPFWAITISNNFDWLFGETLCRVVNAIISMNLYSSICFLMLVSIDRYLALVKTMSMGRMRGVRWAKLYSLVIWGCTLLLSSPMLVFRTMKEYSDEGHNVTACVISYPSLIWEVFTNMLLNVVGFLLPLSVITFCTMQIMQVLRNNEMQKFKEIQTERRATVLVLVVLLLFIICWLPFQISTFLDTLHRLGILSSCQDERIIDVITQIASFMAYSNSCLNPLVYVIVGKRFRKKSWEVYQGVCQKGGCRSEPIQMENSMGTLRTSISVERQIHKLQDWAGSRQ

[2] = DRUGMATRIX: Sodium/nucleoside co-transporter radioligand binding (ligand: nitrobenzylthioinosine); format: cell membranes, Cavia porcellus, Dunkin-Hartley, Cerebral cortex, Membrane; details: Not Active = under 50% inhibition at 10 µM
[3] = DRUGMATRIX: Atrial Natriuretic Factor (ANF) radioligand binding (ligand: [125I] ANF (rat)); format: cell membranes, Cavia porcellus, Dunkin-Hartley, Adrenal gland, Membrane; details: Not Active = under 50% inhibition at 10 µM
[4] = molecular target: T2, Cholecystokinin receptor type A (Homo sapiens, UniProt P32238); format: cell membranes, Membrane; details: 1321-n1; also: in other assays of this panel Not Active means under 50% inhibition at 10 µM
T2 sequence (P32238 whole entry): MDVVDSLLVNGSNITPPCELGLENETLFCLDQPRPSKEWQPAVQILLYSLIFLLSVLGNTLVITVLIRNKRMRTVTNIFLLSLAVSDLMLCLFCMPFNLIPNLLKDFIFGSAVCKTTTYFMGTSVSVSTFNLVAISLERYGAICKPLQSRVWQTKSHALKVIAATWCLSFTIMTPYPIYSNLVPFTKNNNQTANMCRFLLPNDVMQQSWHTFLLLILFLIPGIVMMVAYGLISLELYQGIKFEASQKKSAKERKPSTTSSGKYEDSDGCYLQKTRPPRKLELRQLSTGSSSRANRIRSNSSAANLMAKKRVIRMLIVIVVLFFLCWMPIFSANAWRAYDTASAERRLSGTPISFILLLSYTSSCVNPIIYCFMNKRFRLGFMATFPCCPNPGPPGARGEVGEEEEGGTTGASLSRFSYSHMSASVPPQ

[5] = DRUGMATRIX: Phorbol Ester radioligand binding (ligand: [3H] PDBu); format: cell membranes, Mus musculus, ICR, Brain, Membrane; details: Not Active = under 50% inhibition at 10 µM
[6] = molecular target: Adenosine receptor A2a (Homo sapiens, UniProt P29274); test: DRUGMATRIX: Adenosine A2A radioligand binding (ligand: […]); format: cell membranes, HEK293, Membrane; details: hek293; Not Active = under 50% inhibition at 10 µM
Chain of Adenosine receptor A2a (P29274 whole entry): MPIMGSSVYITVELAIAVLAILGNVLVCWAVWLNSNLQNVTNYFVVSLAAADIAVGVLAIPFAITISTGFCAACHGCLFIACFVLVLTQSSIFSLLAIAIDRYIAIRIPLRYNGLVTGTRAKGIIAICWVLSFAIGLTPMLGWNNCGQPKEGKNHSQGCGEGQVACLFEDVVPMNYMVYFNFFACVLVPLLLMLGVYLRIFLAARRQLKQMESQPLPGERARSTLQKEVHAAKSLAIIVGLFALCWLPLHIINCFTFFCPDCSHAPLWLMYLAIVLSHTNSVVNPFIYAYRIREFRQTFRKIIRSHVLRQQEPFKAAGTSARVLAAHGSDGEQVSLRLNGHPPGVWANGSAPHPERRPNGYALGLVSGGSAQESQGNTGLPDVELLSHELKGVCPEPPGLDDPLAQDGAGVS

[7] = molecular target: T3, Neuropeptide Y receptor type 2 (Homo sapiens, UniProt P49146); format: cell membranes, Membrane; details: kan-ts; also: in other assays of this panel Not Active means under 50% inhibition at 10 µM
T3 sequence (P49146 whole entry): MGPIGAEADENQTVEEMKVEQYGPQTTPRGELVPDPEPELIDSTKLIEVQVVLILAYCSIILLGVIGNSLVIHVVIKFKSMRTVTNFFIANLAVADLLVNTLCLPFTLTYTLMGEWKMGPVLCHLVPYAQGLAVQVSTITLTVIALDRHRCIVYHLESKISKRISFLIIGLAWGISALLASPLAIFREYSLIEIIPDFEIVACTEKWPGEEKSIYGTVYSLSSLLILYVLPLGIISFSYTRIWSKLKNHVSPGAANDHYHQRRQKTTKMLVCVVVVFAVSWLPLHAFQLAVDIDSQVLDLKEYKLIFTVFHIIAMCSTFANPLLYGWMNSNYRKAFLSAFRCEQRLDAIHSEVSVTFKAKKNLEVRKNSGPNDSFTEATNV

[8] = molecular target: T4, Neutrophil elastase (Homo sapiens, UniProt P08246); format: tissue-based;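 also: inhibition of neutrophil elastase enzyme activity, measured with a p-nitroanilide-linked peptide substrate; in other assays of this panel Not Active means under 50% inhibition at 10 µM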
T4 sequence (P08246 whole entry): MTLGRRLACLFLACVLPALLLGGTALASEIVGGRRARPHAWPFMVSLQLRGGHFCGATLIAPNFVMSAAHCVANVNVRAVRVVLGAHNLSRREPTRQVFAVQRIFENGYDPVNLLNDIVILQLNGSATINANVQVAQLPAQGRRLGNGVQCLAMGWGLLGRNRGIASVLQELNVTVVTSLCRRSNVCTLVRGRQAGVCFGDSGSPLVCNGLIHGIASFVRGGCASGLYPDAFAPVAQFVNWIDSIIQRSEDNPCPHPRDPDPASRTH

[9] = molecular target: T5, Vasoactive intestinal polypeptide receptor 1 (Homo sapiens, UniProt P32241); format: cell membranes, Membrane; details: ht-29; also: in other assays of this panel Not Active means under 50% inhibition at 10 µM
T5 sequence (P32241 whole entry): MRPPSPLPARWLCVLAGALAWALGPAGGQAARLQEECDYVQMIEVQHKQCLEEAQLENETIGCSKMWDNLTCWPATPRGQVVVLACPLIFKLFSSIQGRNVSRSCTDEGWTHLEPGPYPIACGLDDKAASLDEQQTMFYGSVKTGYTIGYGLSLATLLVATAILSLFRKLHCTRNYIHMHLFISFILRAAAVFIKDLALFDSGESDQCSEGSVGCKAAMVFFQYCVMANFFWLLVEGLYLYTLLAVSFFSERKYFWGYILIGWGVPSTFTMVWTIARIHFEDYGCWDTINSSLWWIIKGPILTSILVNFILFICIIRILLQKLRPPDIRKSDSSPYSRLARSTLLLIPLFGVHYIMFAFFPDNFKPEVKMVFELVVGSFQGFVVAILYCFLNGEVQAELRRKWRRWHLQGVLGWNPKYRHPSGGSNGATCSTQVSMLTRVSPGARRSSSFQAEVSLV

Oc1ccc(/C=C/c2cc(O)cc(O)c2)cc1 [RESVERATROL]
Not Active: IC50 [1] | IC50 [2] | Ki [2] | IC50 [3] | Ki [3] | IC50 [4] | IC50 [5] | Ki [5] | IC50 [6] | IC50 [7] | IC50 [8] | IC50 [9]

CC1=C(/C=C/C(C)=C/C=C/C(C)=C/C(=O)O)C(C)(C)CCC1 [TRETINOIN]
Not Active: IC50 [1] | IC50 [2] | Ki [2] | IC50 [3] | Ki [3] | IC50 [4] | IC50 [5] | Ki [5] | IC50 [6] | IC50 [7] | IC50 [8] | IC50 [9]

CC[C@@]1(O)C(=O)OCc2c1cc1n(c2=O)Cc2cc3c(CN(C)C)c(O)ccc3nc2-1 [TOPOTECAN]
Not Active: IC50 [1] | IC50 [2] | Ki [2] | IC50 [3] | Ki [3] | IC50 [4] | IC50 [5] | Ki [5] | IC50 [6] | IC50 [7] | IC50 [8] | IC50 [9]

O=C(OC[C@H]1O[C@@H](OC(=O)c2cc(O)c(O)c(OC(=O)c3cc(O)c(O)c(O)c3)c2)[C@H](OC(=O)c2cc(O)c(O)c(OC(=O)c3cc(O)c(O)c(O)c3)c2)[C@@H](OC(=O)c2cc(O)c(O)c(OC(=O)c3cc(O)c(O)c(O)c3)c2)[C@@H]1OC(=O)c1cc(O)c(O)c(OC(=O)c2cc(O)c(O)c(O)c2)c1)c1cc(O)c(O)c(OC(=O)c2cc(O)c(O)c(O)c2)c1 [TANNIC ACID]
Not Active: IC50 [1] | IC50 [2] | Ki [2] | IC50 [3] | Ki [3] | IC50 [4] | IC50 [5] | Ki [5] | IC50 [6] | IC50 [7] | IC50 [8] | IC50 [9]

CC(Cl)(Cl)Cl [TRICHLOROETHANE]
Not Active: IC50 [1] | IC50 [2] | Ki [2] | IC50 [3] | Ki [3] | IC50 [4] | IC50 [5] | Ki [5] | IC50 [6] | IC50 [7] | IC50 [8] | IC50 [9]

C=CCc1ccc2c(c1)OCO2 [SAFROLE]
Not Active: IC50 [1] | IC50 [2] | Ki [2] | IC50 [3] | Ki [3] | IC50 [4] | IC50 [5] | Ki [5] | IC50 [6] | IC50 [7] | IC50 [8] | IC50 [9]

O=C1CC[C@@]2(O)[C@H]3Cc4ccc(O)c5c4[C@@]2(CCN3CC2CC2)[C@H]1O5 [NALTREXONE]
Not Active: IC50 [1] | IC50 [2] | Ki [2] | IC50 [3] | Ki [3] | IC50 [4] | IC50 [5] | Ki [5] | IC50 [6] | IC50 [7] | IC50 [8] | IC50 [9]

CN1C(=O)OC(C)(C)C1=O [TRIMETHADIONE]
Not Active: IC50 [1] | IC50 [2] | Ki [2] | IC50 [3] | Ki [3] | IC50 [4] | IC50 [5] | Ki [5] | IC50 [6] | IC50 [7] | IC50 [8] | IC50 [9]

CC(O)C(=O)O (configuration not stated) [LACTIC ACID]
Not Active: IC50 [1] | IC50 [2] | Ki [2] | IC50 [3] | Ki [3] | IC50 [4] | IC50 [5] | Ki [5] | IC50 [6] | IC50 [7] | IC50 [8] | IC50 [9]

CS(=O)(=O)c1ccc(C2=C(c3ccccc3)C(=O)OC2)cc1 [ROFECOXIB]
Not Active: IC50 [1] | IC50 [2] | Ki [2] | IC50 [3] | Ki [3] | IC50 [4] | IC50 [5] | Ki [5] | IC50 [6] | IC50 [7] | IC50 [8] | IC50 [9]

C[N+]1(C)[C@@H]2C[C@@H](OC(=O)[C@H](CO)c3ccccc3)C[C@H]1[C@@H]1O[C@@H]12.[Br-] [METHSCOPOLAMINE BROMIDE]
Not Active: IC50 [1] | IC50 [2] | Ki [2] | IC50 [3] | Ki [3] | IC50 [4] | IC50 [5] | Ki [5] | IC50 [6] | IC50 [7] | IC50 [8] | IC50 [9]
